Measurements taken from patent publication US20080280989A1, “Hydroxybenzamide Derivatives, the Method For Preparing Thereof and the Cosmetic Composition Containing the Same” (priority 2005, published 2008).
Like-named read-outs stand apart in the source and are kept apart here.

Key:
[1] = tested on: Human keratinocyte HaCaT cell lines; assay: Anti-oxidative effect using HaCaT model (lipid peroxidation assay kit); format: cell-based; settings: for activity at 100 µM: Homo sapiens, read-out: Lipid peroxidation (%)
Experimental: The hydroxybenzamide compounds prepared in Examples 1-8 were determined for their anti-oxidative effects.
Human keratinocyte HaCaT cell lines were pipetted into 60 mm dishes in a cell count of 1.0×10^6 cells per dish, and were cultured by using a DMEM (FBS 10%) medium containing penicillin/streptomycin added thereto under the conditions of 37° C./5% CO2 for 1 day. Then, the cultured product was treated with each of the hydroxybenzamide compounds according to Examples 1˜8 in a concentration of 10˜4 mol. Also, the same cultured product was treated with the same concentration of tocopherol and resveratrol for 24 hours. In addition to the above, the cultured product was treated with t-BHT (t-butyl hydroperoxide) and cultured under the conditions of 37° C./5% CO2 for 4 hours to obtain cells. The cells were subjected to lysis by repeating freezing/thawing cycles. The following Test procedure was based on the method described in the assay kit used in this example.
In this example, Calbiochem Lipid peroxidation assay kit (Cat. No. 437634) was used as a test reagent, and lipid peroxidation was determined by using the mechanism of formation of stable compounds at 586 nm from the reaction between the above reagent and ester peroxides linked to long-chain unsaturated fatty acids, such as malondialdehyde (MDA) and 4-hydroxyalkenal (4-hydroxy-2(E)-nonenal, 4-HNE).

procollagen type(I) = assay: Stimulation of collagen biosynthesis (procollagen type(I) ELISA); format: cell-based; settings: Fibroblasts, 10 μM in serum-free medium, 24 hours, non-treated group taken as 100; for activity at 10 µM: Fibroblast
Experimental: The hydroxybenzamide compounds according to Examples 18 were determined for their effects of stimulating collagen biosynthesis, and the results were compared to the effects obtained from resveratrol and tocopherol.
Fibroblasts were seeded into a 24-well microtiter plate in a cell count of 10^5 cells per well and cultured to a growth level of 90%. The cultured product was further cultured in a serum-free DMEM medium for 24 hours. Next, the cultured product was treated with the hydroxybenzamide compounds according to Examples 1˜8, resveratrol and tocopherol, dissolved in a serum-free medium at a concentration of 10 μM, and then was cultured in a CO2 incubator for 24 hours. After decanting the supernatant, procollagen was determined by using a procollagen type(I) ELISA kit. The results are shown in the following Table 2, wherein the biosynthesis activity is expressed based on the biosynthesis activity of non-treated group, taken as 100.

collagenase = assay: Effect of inhibiting collagenase expression; format: cell-based; settings: Human fibroblasts, 10˜4M in serum-free DMEM, non-treated group taken as 100; for activity at 100 µM: Fibroblast
Experimental: The hydroxybenzamide compounds according to Examples 1˜8 were determined for their effects of inhibiting collagenase expression, and the results were compared to the effects obtained from resveratrol and tocopherol.
Human fibroblasts were introduced into a 96-well microtiter plate containing a DMEM (Dulbecco's Modified Eagle's Media) with 2.5% fetal bovine serum (FBS) in a cell count of 5,000 cells per well and cultured to a growth level of 90%. Then, the cultured product was further cultured in a serum-free DMEM medium for 24 hours. Next, the cultured product was treated with the hydroxybenzamide compounds according to Examples 18, resveratrol and tocopherol, dissolved in a serum-free DMEM medium at a concentration of 10˜4M, and then the cell culture was collected. The cell culture was evaluated for the production of collagenase by using a commercially available collagenase measuring system (Amersham Pharmacia, USA). First, the cell culture was introduced into a 96-well plate coated uniformly with primary collagenase antibodies, and then an antigen-antibody reaction was carried out in an incubator for 3 hours. After 3 hours, secondary collagenase antibodies, to which chromophores were bound, were introduced into the 96-well plate, and the reaction was further carried out for 15 minutes. After 15 minutes, a color developer was added thereto to develop a color at room temperature for 15 minutes, and 1M sulfuric acid was further added thereto to quench the reaction (color development). […] The yellow-colored 96-well plate was measured for absorptivity at 405 nm by using an absorption spectrometer, and a degree of collagenase synthesis was calculated according to the following Mathematical Formula 1. At this time, absorptivity of the cell culture in a non-treated group was used as a control.
Collagenase expression (%)=Absorptivity of the group treated with the corresponding sample/Absorptivity of the control×100 [Mathematical Formula 1]
The collagenase expression inhibiting activity was expressed based on the collagenase synthesis activity of the non-treated group, taken as 100.

[2] = Thermal stability according to isothermal discoloration test; format: physicochemical; parameters: key: 1: no discoloration; 2: discoloration into a light yellow color; 3: discoloration into a dark yellow color; 4: discoloration into a dark brown color; settings: 1000 pm in dimethylformaldehyde:ethanol:water=5:3:2, 40° C., naked eyes
Experimental: The hydroxybenzamide compounds according to Examples 18 were determined for their thermal stability as compared to resveratrol.
The test was performed by dissolving each of the hydroxybenzamide compounds according to Examples 1˜8 into a test solvent (dimethylformaldehyde:ethanol:water=5:3:2) in a concentration of 1000 pm, and by allowing the test samples to be left in an isothermal chamber at 40° C. for a test period of 30, 60 and 90 days. Then, the test samples were observed by the naked eyes to determine discoloration degrees.
Discoloration of the samples was graded into Grade 1 Grade 4 as follows:
2: discoloration into a light yellow color
3: discoloration into a dark yellow color
4: discoloration into a dark brown color

[3] = HaCaT cells, sample at 10˜4 mol for 24 hours, then t-BHT 4 hours, non-treated group = 100

Row | Compound | activity at 100 µM [1, 3] | activity at 10 µM (procollagen type(I)) | activity at 100 µM (collagenase) | Discoloration after 30 days [2] | Discoloration after 60 days [2] | Discoloration After 90 days [2] | Lipid peroxidation (%) [1, 3] | Collagen biosynthesis activity (%) (procollagen type(I)) | Collagenase expression (%) (collagenase) | activity at 100 µM ([1]; HaCaT, 24 h)
1 | Oc1ccc(C=Cc2cc(O)cc(O)c2)cc1 [Resveratrol, reference compound] | 178% | 111% | 81% | 2 | 3 | 4 |  |  |  | 
2 | O=C(Nc1ccc(O)cc1)c1cc(O)cc(O)c1 [Ex. 1, 3,5-dihydroxy-N-(4-hydroxyphenyl)benzamide] | 170% | 143% | 67% | 1 | 1 | 1 |  |  |  | 
3 | COc1ccc(NC(=O)c2cc(O)cc(O)c2)cc1O [Ex. 8, 3,5-dihydroxy-N-(3-hydroxy-4-methoxyphenyl)benzamide] | 181% | 120% | 69% | 1 | 1 | 1 |  |  |  | 
4 | COc1cc(NC(=O)c2cc(O)cc(O)c2)cc(OC)c1 [Ex. 6, 3,5-dihydroxy-N-(3,5-dimethoxyphenyl)benzamide] | 172% | 116% | 71% | 1 | 1 | 1 |  |  |  | 
5 | COc1ccc(NC(=O)c2cc(O)cc(O)c2)cc1OC [Ex. 5, 3,5-dihydroxy-N-(3,4-dimethoxyphenyl)benzamide] | 176% | 115% | 72% | 1 | 1 | 1 |  |  |  | 
6 | COc1cc(NC(=O)c2cc(O)cc(O)c2)cc(OC)c1OC [Ex. 7, 3,5-dihydroxy-N-(3,4,5-trimethoxyphenyl)benzamide] | 179% | 119% | 70% | 1 | 1 | 1 |  |  |  | 
7 | O=C(Nc1cccc(O)c1)c1cc(O)cc(O)c1 [Ex. 3, 3,5-dihydroxy-N-(3-hydroxyphenyl)benzamide] | 182% | 122% | 71% | 1 | 1 | 1 |  |  |  | 
8 | O=C(Nc1ccccc1O)c1cc(O)cc(O)c1 [Ex. 2, 3,5-dihydroxy-N-(2-hydroxyphenyl)benzamide] | 180% | 121% | 69% | 1 | 1 | 1 |  |  |  | 
9 | COc1ccc(NC(=O)c2cc(O)cc(O)c2)cc1 [Ex. 4, 3,5-dihydroxy-N-(4-methoxyphenyl)benzamide] | 186% | 118% | 74% | 1 | 1 | 1 |  |  |  | 
10 | Tocopherol [reference compound] |  |  |  |  |  |  | 250% | 113% | 95% | 
11 | CC(C)(C)OO [t-BHT, t-butyl hydroperoxide, reference compound] |  |  |  |  |  |  |  |  |  | 320%
